Measurements from PMC12645191, “Dicarboxylate and dicarboxylic acid appended supramolecular self-associating amphiphiles as antimicrobial agents against high priority bacterial pathogens” (Organic & Biomolecular Chemistry, 2025).
Where two headings read alike, the source gives them in different places.

How the values were obtained:
[1] = dynamic light scattering (DLS) of SSA aggregates; assay type: physicochemical; settings: 5.6 mM, H2O 5.0% EtOH, 298 K
Protocol: Dynamic light scattering (DLS) and zeta potential measurements in H2O 5.0% EtOH were used to determine the hydrodynamic diameter (dH) and stability of the higher-order SSA aggregates detected by (Q) ^1H NMR spectroscopy at 5.6 mM, Table 1. […] However, we are unable to confidently report a dH for 1 due to the instability of this system, which is supported by a zeta potential value of −26 mV, obtained for this SSA under the same experimental conditions. […] Due to the instability of these systems in the absence of solvent, attempts to further characterise these systems through SEM or AFM are not possible.[48]

[2] = metabolic stability in liver microsomes; assay type: in vitro ADME, rat; settings: for microsomal CLint at 1 µM: read-out: in vitro CLint; for half-life at 1 µM: read-out: in vitro t1/2; for CLint scaled at 1 µM: liver microsomes, read-out: Scale-up CLint
Protocol: (§1) Metabolic stability was assessed in mouse and rat liver microsomes. Microsomes are subcellular fractions of hepatocytes and contain CYP450s, the predominant enzymes involved in first-pass metabolism.[66] […] A plasma protein binding assay was performed to assess the extent of compound binding to plasma proteins. This is key as only unbound compound is free to distribute and exert a pharmacological effect. […] To assess the potential for this sub-class of SSAs to be developed as drugs for oral administration, Caco-2 permeability assays were also performed, as a cellular model indicative of human intestinal permeability.
Section 3: Biological methods […]
In vitro Absorption, Distribution and Metabolism
These studies were performed by Contract Research Organisation (CRO) Pharmaron. The methodology provided within the ESI is published within the express permission of this organisation. The percentage of a compound recovered during the analysis process should be 100 %; any deviation from this value indicates experimental limitations such as unintended potential non-specific binding events to experimental equipment, solubility issues, etc.
Metabolic Stability in Rat and Mouse Liver Microsomes:
The metabolic stability of compounds at a concentration of 1 µM, in rat and mouse liver […]
/ mL) in the presence and absence of cofactor (NADPH) at 37 °C. Aliquots of each incubation were removed at 0.5, 5, 15, 30 and 60 minutes. The reaction was stopped by the addition of 5 volumes of cold acetonitrile containing analytical internal standard (IS).
Samples were then centrifuged at 3 °C, 220 g for 40 minutes to remove cell debris. The supernatant was aliquoted and added to ultra-pure H2O in a 1:1 ratio in preparation for LC- […]
Samples were analysed using a Shimadzu liquid chromatography system coupled to a Triple Quad 6500+ mass spectrometry (AB Inc.) Separation of compounds was achieved using an HSS T3 column (50 x 2.1 mm) at a temperature of 40 °C and a binary mobile phase gradient […]
at a flow rate of 0.7 mL/min. […]
acid in water) and 5 % solvent B (0.1 % formic acid in acetonitrile). […]
solvent B at 0.7 minutes, held for 0.5 minutes and then immedi ately returned to initial conditions. Sample analysis was by electrospray ionisation. […]

[3] = bi-directional permeability in Caco-2 cell line; assay type: in vitro ADME, human; settings: human; for efflux ratio at 2 h / recovery at 2 h: Caco-2, pH 7.4, Caco-2; for Papp A→B at 2 h / Papp B→A at 2 h: Caco-2, pH 7.4, Caco-2, 5 or 10 µM, HBSS pH 7.4, 2 hours
Protocol: as §1, with “permeability. […]” for “permeability.”
Sample analysis was by electrospray ionisation. […]
Bi-directional Permeability in Caco-2 Cell Line:
The bi-directional permeability in Caco-2 cell lines was determined by seeding cells onto an HTS Transwell plate. Cells were cultivated for 14-18 days in a cell culture incubator at 37 °C, 5 % CO2, 95 % relative humidity. Cell culture medium was replaced every other day. To assess monolayer integrity the transepithelial electrical resistance (TEER) across the monolayer was measured using Millicell Epithelial volt-ohm meter prior to assay and Lucifer yellow (LY) fluorescence measurement post-assay.
Test and control compounds were prepared in DMSO and diluted in Hank’s Balanced Saline […]
Solution (HBSS, pH 7.4) to a final concentration of 5 or 10 µM. Compound was added to the […]
donor compartment of the transwell plate for both apical to basolateral (A>B) and basolateral […]
to apical (B>A) measurements, with blank HBSS being added to the receiver compartment.
The transwell plate was then incubated at 37 °C, 5 % CO2 for 2 hours.

[4] = rat liver microsomes, 1 µM, 0.5 mg protein/mL

SMILES | Hepatic Extraction Ratio (ER) ([2]; rat) | Predicted Hepatic CLH ([2]; rat) | microsomal CLint at 1 µM [2, 4] | half-life at 1 µM [2, 4] | Remaining percentage ([2]; rat, +Cofactors, 0.5 min) | Remaining percentage ([2]; rat, +Cofactors, 5 min) | Remaining percentage ([2]; rat, +Cofactors, 15 min) | Remaining percentage ([2]; rat, +Cofactors, 30 min) | Remaining percentage ([2]; rat, +Cofactors, 60 min) | Remaining percentage ([2]; rat, -Cofactors, 0.5 min) | Remaining percentage ([2]; rat, -Cofactors, 60 min) | CLint scaled at 1 µM ([2]; rat) | efflux ratio at 2 h [3] | Papp A→B at 2 h [3] | Papp B→A at 2 h [3] | recovery at 2 h ([3]; read-out: Recovery (%) AP-BL) | recovery at 2 h ([3]; read-out: Recovery (%) BL-AP) | other results
O=C(O)CC[C@@H](NC(=O)Nc1ccc(C(F)(F)F)cc1)C(=O)O [SSA 3] | < 0.21 | < 14.42 mL/min/kg | < 7.5 µL/min/mg | > 185 min | 100.00% | 95.07% | 99.07% | 97.86% | 98.31% | 100.00% | 104.13% | < 18.3 mL/min/kg | 2.31 | 0.1 ×10⁻⁶ cm/s | 0.24 ×10⁻⁶ cm/s | 103% | 87.4% | DLS Peak 2 maxima ([1]; listed as 3): 1410 nm; Polydispersity index (%) ([1]; listed as 3): 20.2 (± 0.7) %; dH (DLS intensity distribution peak 1 maxima) ([1]; listed as 3): 154 nm
O=C(O)CC[C@H](NC(=O)Nc1ccc(C(F)(F)F)cc1)C(=O)O [SSA 2] | < 0.21 | < 14.42 mL/min/kg |  |  | 100.00% | 95.53% | 94.28% | 97.57% | 96.64% | 100.00% | 97.74% |  |  |  |  |  |  | Polydispersity index (%) [1]: 18.2 (± 1.1) %; dH (DLS intensity distribution peak 1 maxima) [1]: 140 nm; Scale-up CLint ([2]; rat): < 18.30 mL/min/kg; in vitro CLint [2, 4]: < 7.50 µL/min/mg; in vitro t1/2 [2, 4]: > 184.78 min
O=C(O)CC[C@H](NC(=O)Nc1ccc(C(F)(F)F)cc1)C(=O)O [SSA 1] | < 0.21 | < 14.42 mL/min/kg | < 7.5 µL/min/mg | > 185 min | 100.00% | 96.56% | 99.83% | 96.48% | 95.66% | 100.00% | 102.14% | < 18.3 mL/min/kg | 1.23 | 0.19 ×10⁻⁶ cm/s | 0.23 ×10⁻⁶ cm/s | 107% | 89.7% | 
O=C(O)CC[C@H](NC(=O)Nc1ccc(Br)cc1)C(=O)O [SSA 9] | < 0.21 | < 14.42 mL/min/kg | < 7.5 µL/min/mg | > 185 min | 100.00% | 97.95% | 96.49% | 99.04% | 100.06% | 100.00% | 102.63% | < 18.3 mL/min/kg | 1.93 | 0.17 ×10⁻⁶ cm/s | 0.32 ×10⁻⁶ cm/s | 115% | 106% | Polydispersity index (%) ([1]; listed as 9): 25.6 (± 1.0) %; dH (DLS intensity distribution peak 1 maxima) ([1]; listed as 9): 178 nm
